The text below walks through data of publication PMC11959706, “Allatostatin-C signaling in the crab Carcinus maenas is implicated in the ecdysis program” (The Journal of Experimental Biology, 2025).

Experiment [1] concerns antiserum raised against Manduca sexta AST-C. The experiment can be described thus: AST-C radioimmunoassay standard curves and cross-reactivity. It counts as binding. The conditions noted are these: competitive RIA with iodinated AST-C tracer, antiserum 1:1000; typical standard curves. How it is done:
AST-C (300 pmol, dissolved in 10 µl 200 mmol l^−1 phosphate buffer at pH 7.5) was radio iodinated with 9.25–12.5 MBq NaI^125 in 10^−5 mol l^−1 NaOH (PerkinElmer, Boston MA), using Chloramine-T ([Bolton, 1989]). Following termination of the reaction (4.3 µg cysteine in 100 µl phosphate buffer) and quenching (500 µl of 0.2 mg ml^−1 KI in phosphate buffer), radiolabeled peptide was separated from unincorporated iodide on Sep-Pak C18 cartridges (Waters, Milford, MA, USA), by firstly washing with 10 ml of 200 mmol l^−1 phosphate buffer then eluting the peptide with 40% isopropanol in 500 µl fractions. Small quantities (2 µl) were then taken for counting. Specific activities of 8–16 TBq mmol^−1 were routinely obtained.
RIA conditions were as follows: iodinated AST-C 35,000 dpm per 50 µl PBS containing 0.05% BSA and 0.02% sodium azide. An antiserum raised against Manduca sexta AST-C (a generous gift from Dr N. Audsley, FERA, York) was used at 1:1000 in PBS at 50 µl per tube. Standard peptides 2–2000 fmol per 50 µl and unknowns were assayed in duplicate. Tubes were first incubated for 6 h at room temperature, without tracer, which was then added, followed by 4°C incubation overnight. […]

The subject of another experiment is Y-organs. The experiment can be described thus: Y-organ in vitro bioassay of ecdysteroid synthesis (ecdysteroid RIA). It counts as cell-based, Carcinus maenas. The following applies: 100 nmol l^−1, 24 h incubation; N=3–6. How it is done:
To determine the possible activity of AST-C and/or AST-CC on ecdysteroid synthesis, Y-organs (YOs) were dissected from ice-anaesthetized crabs and used in the in vitro bioassay as detailed previously ([Webster, 1986]). Following 24 h incubations, culture medium was aspirated and snap frozen in liquid nitrogen prior to ecdysteroid RIA. YOs were sonicated in PBS, centrifuged (13,000 g for 5 min at room temperature) and assayed for protein concentration using a BCA protein kit (EMD Millipore, Burlington MA, USA). Protein concentrations (BSA standards) were used to normalize ecdysteroid synthesis between YO pairs.
Ecdysteroid RIAs were performed on 20 µl aliquots of culture medium using the following conditions: 100 μl 1:2000 anti-ecdysteroid serum HB-2E (a kind gift from R. D Watson, Alabama University), 100 µl H^−3 Ponasterone A [24, 25, 26, 27-3H (N), 3.5 TBq mmol^−1 (American Radiochemical Company, St Louis, MO, USA)] at 28,000 dpm per tube. 25-Deoxyecdysone (a kind gift from Prof. R. Lafont, Sorbonne University, Paris) was used as a standard (range 2500–19.5 pg per tube), and unknowns and standards were assayed in triplicate. Bound was separated from free using 50 µl per tube immobilized donkey anti-rabbit nitrocellulose suspension (Sac-Cel), as detailed for the AST-C RIA. Pellets were resuspended in 600 µl Hi-Safe 3 (Perkin Elmer) prior to counting. Using this RIA, both ecdysone and 25-deoxyecdysone (the two ecdysteroids synthesized by C. maenas YOs) were equally recognized.

A further experiment deals with AST-C receptor. The following applies: S. paramamosain AST-C receptor, CRE-Luc reporter, HEK293; ref Liu et al., 2021; cited from earlier work. An excerpt: For decapod crustaceans, the only other AST-C receptors that have been functionally de-orphaned are those from Cancer borealis, using EGFP fused to the C-terminus of the AST-C receptor and expression in Spodoptera frugiperda SF9 cells ([Dickinson et al., 2019]), and from H. americanus, using chimeric EGFP constructs in Tricoplusia ni cells.

A further experiment relates to YOs. Further details: method as in Liu et al., 2021. The conditions noted are these: 10^−6 M; S. paramamosain; EIA measuring 20-hydroxyecdysone; ref Liu et al., 2021; cited from earlier work.
A further experiment deals with vitellogenesis. The conditions noted are these: S. paramamosain; ref Liu et al., 2019; cited from earlier work. From the text:
It is likely that vitellogenesis takes place during inter-molt in this species, as it does in C. maenas ([Styrishave et al., 2008]), a closely related portunid crab. Since AST-C and likely AST-CC are only ephemerally released during the completion of ecdysis in the latter species, involvement of AST-C in inhibition of vitellogenesis seems entirely improbable, and it is extremely unlikely that in vivo injection of AST-C, as reported by [Liu et al. (2019)], has any biological relevance i ...

Bridge positions count the residues as written; N and C are the ends. Ends that are not written are not given here.

For “GNGDGRLYWRCYFNAVSCF (disulfide 11-18 (inferred)) [AST-CC, C. maenas AST-C family neuropeptide; synthetic (GenScript)]”, the “ED50 in AST-C RIA standard curve” value in experiment [1] was determined as 8000 fmol per tube. The “Effect on ecdysteroid synthesis by Y-organs” value with Y-organs is on record as “entirely without effect”.

For the substance “pQIRYHQCYFNPISCF (disulfide) [AST-C, allatostatin-C, C. maenas AST-C family neuropeptide with C-terminal PISCF motif; synthetic (GenScript)]”, the “ED50 in AST-C RIA standard curve” value in experiment [1] is reported as 20 fmol per tube. Also, the “Effect on ecdysteroid synthesis by Y-organs” value with Y-organs is recorded as “entirely without effect”. Further, the “ED50, receptor activation” value with AST-C receptor was around 6 nM. Further, the “Effect on ecdysteroid synthesis by YOs in vitro” value in the experiment on YOs was “slightly inhibit”. In addition, the “Effect of in vivo injection on vitellogenesis” value with vitellogenesis is “inhibits vitellogenesis”.
